Source: PMC6123691, “Structural basis for promotion of duodenal iron absorption by enteric ferric reductase with ascorbate” (Communications Biology, 2018)

T1: duodenal cytochrome b (Dcytb) (Homo sapiens, UniProt Q53TN4)
T1 construct: gene CYBRD1; full-length Dcytb (residues 1–286); atomic model residues 6–230
T1 sequence (Q53TN4 1-286): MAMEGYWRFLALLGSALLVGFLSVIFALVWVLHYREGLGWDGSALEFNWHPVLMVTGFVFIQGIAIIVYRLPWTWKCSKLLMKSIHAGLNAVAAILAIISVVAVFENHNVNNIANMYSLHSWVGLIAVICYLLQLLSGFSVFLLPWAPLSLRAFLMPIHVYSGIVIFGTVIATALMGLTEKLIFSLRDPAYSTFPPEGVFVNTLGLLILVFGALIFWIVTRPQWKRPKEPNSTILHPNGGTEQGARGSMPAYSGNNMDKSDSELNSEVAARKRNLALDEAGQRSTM


Experiments:
[1] = target: T1, duodenal cytochrome b (Dcytb); assay: X-ray crystal structure ([…] Å, soaked with […] sodium ascorbate and ZnSO4); stopped-flow heme reduction; format: binding
[2] = target: the molecule itself; assay: crystal structure; lipidic cubic phase (monoolein) crystals, space group C2; substrate-free form at 2.6 Å and Zn2+/ascorbate-soaked form at 2.8 Å; the dimer is formed by crystallographic twofold symmetry

Molecule | X-ray crystal structure (2.8 Å, soaked with 1 M sodium ascorbate and ZnSO4); sto [1] | stoichiometry N [2]
O=C1O[C@H]([C@@H](O)CO)C(O)=C1O [Asc, ascorbate] | The electron density from one ascorbate molecule was observed on the cytoplasmic surface of Dcytb in proximity to the heme | –
human duodenal cytochrome b (Dcytb) (enzyme, UniProt Q53TN4 1-286, looked up, human duodenal cytochrome b (Dcytb), member of the cytochrome b561 family, full-length, residues 1-286; codon-optimized gene; the atomic model includes only residues 6-230; A thrombin cleavage site stood between the protein and the C-terminal hexa-His tag (pET-21b(+)); after cleavage some residues of the site may remain at the C-terminus; Integral membrane protein, solubilised in DDM and …) MAMEGYWRFLALLGSALLVGFLSVIFALVWVLHYREGLGWDGSALEFNWHPVLMVTGFVFIQGIAIIVYRLPWTWKCSKLLMKSIHAGLNAVAAILAIISVVAVFENHNVNNIANMYSLHSWVGLIAVICYLLQLLSGFSVFLLPWAPLSLRAFLMPIHVYSGIVIFGTVIATALMGLTEKLIFSLRDPAYSTFPPEGVFVNTLGLLILVFGALIFWIVTRPQWKRPKEPNSTILHPNGGTEQGARGSMPAYSGNNMDKSDSELNSEVAARKRNLALDEAGQRSTM | – | 2
